PMC10051705, “Leishmanicidal Activity of Guanidine Derivatives against Leishmania infantum” (Tropical Medicine and Infectious Disease, 2023)
Marks after values point to notes of the source that are not given here.

Experiments:
[1] = tested on: L. infantum promastigotes; assay: apoptosis/necrosis profiling, annexin V/PI staining, promastigotes; type: cell-based, Leishmania infantum
Procedure: (§1) To evaluate both apoptosis and necrosis, promastigote forms of L. infantum in the log phase of growth were incubated at several concentrations based on the IC50 values of LQOFG-2 (6.35; 12.7, 25.4, and 50.8 µM) LQOFG-6 (12.2, 24.4, 48.8 and 97.6 µM), and LQOFG-7 (11.65, 23.3, 46.6 and 93.2 µM), and AmB (1.5 and 6 µM) was used as the positive control. The plates were incubated for 24 h at 26 °C ± 1 °C in a B.O.D. incubator. After incubation, the promastigotes were washed three times in cold PBS, resuspended in binding buffer (10-mM HEPES, 140-mM NaCl, and 2.5-mM CaCl2, pH 7.4), and stained using a FITC Annexin V/Dead Cell Apoptosis Kit (BD Biosciences, San Jose, CA, USA) according to the manufacturer’s instructions. The stained cells were diluted and suspended in an Annexin V binding buffer (BD Biosciences, San Jose, CA, USA). Annexin V-FITC/propidium iodide (PI)-stained cells were analyzed using a BD FACSCanto II flow cytometer (BD Biosciences, San Jose, CA, USA). The raw data were analyzed using FlowJo 10.0.7 software (TreeStar Inc., Ashland, OR, USA).

[2] = tested on: L. infantum axenic amastigotes; assay: apoptosis/necrosis profiling, annexin V/PI staining, axenic amastigotes; type: cell-based, Leishmania infantum
Procedure: as §1
To evaluate both apoptosis and necrosis of the amastigote-like forms of L. infantum, the protocol was followed. In each well, amastigotes were treated with the guanidine compounds and controls.

[3] = tested on: peripheral blood mononuclear cells (PBMCs); assay: in vitro cytotoxicity in PBMC (MTT); type: cell-based, human; conditions: human PBMC, 24 h, MTT
Procedure: In vitro cytotoxicity was evaluated using peripheral blood mononuclear cells (PBMCs) collected from three healthy volunteers (2 males, mean age 33; and 1 person). PBMCs were separated by density gradient using Ficoll Paque PLUS (GE Healthcare, USA), pelleted by centrifugation (400× g for 40 min), and resuspended in RPMI 1640 medium, then supplemented with 10% fetal bovine serum and 1% antibiotic solution (penicillin 5000 Units/mL + streptomycin 5000 μg/mL). After 24 h of treatment, cell viability was evaluated by the modified colorimetric method based on the tetrazolium dye MTT (3-(4,5-dimethylthiazol-2-yl)-2,5- diphenyltetrazolium bromide). The MTT assay was used for in vitro cytotoxicity as previously described with the following modifications: cells were exposed to serially diluted concentrations of LQOFG-2, LQOFG-6, LQOFG-7 (1000 to 7.8 µM), and AmB (100 to 0.78 µM). The plates were kept at 37 °C for 24 h. MTT (5 mg/mL) was added and incubated for 4 h at 37 °C, after which the plates were centrifuged, the supernatant was discarded, and DMSO was added, leaving the plates under stirring to solubilize the formazan salts. Absorbance was measured at 540 nm using a plate reader (ELx800; Curitiba, PR, Brazil). The mean percentage of viable cells was calculated relative to the untreated control.

[4] = tested on: L. infantum promastigotes; assay: promastigote growth inhibition assay (MTT); type: cell-based; conditions: Leishmania infantum, 72 h, 26 °C
Procedure: The promastigote forms of Leishmania (Leishmania) infantum [IOC/L0579(MHOM/BR/1974/PP75)] were cultured in Schneider’s medium, pH 7.0, supplemented with 20% heat-inactivated fetal bovine serum (FBS), 2% male human urine, 100 U/mL of penicillin, and 100 mg/L of streptomycin, and the parasites were maintained at 26 °C. The procedure to obtain the extracellular axenic amastigote form of L. infantum was based on methods previously described that were modified using a Schneider medium readjusted to pH 5.5 at 37 °C. The culture of promastigote forms in the stationary phase was centrifuged, and the medium of these cells was replaced and differentiated into axenic amastigotes by temperature and medium pH changes. Parasites were maintained in culture for no more than 20 passages.
The promastigote growth inhibition assay was performed as previously described. Promastigotes were harvested during the exponential growth phase. They were incubated in the presence and absence of several concentrations of LQOFG-2, LQOFG-6, LQOFG-7 (500 to 7.8 µM), and AmB (10 to 0.078 µM) as the positive control. The plate was incubated at 26 °C for 72 h in a biological oxygen demand (B.O.D.) incubator using a Schneider’s medium (Schneider’s Insect Medium 24.5 g/L; L-glutamine 1.8 g/L; glucose 2 g/L and sodium bicarbonate 0.4 g/L; Sigma-Aldrich—St. Louis—USA) supplemented. The growth inhibition was evaluated using an MTT assay kit (Amresco, Solon, OH, USA) according to the manufacturer’s protocol. After 4 h of incubation, 10% sodium dodecyl sulfate was added to dissolve the formazan crystals. The absorbance (540 nm) was measured using a plate reader (Biosystems model ELx800; Curitiba, PR, Brazil). […] Three independent experiments we performed in triplicate.

Row | IC50 [4] [µM] | SMILES | % cells, Early Apoptosis (AV+, PI−) ([1]; 1× IC50, 24 h) [%] | % cells, Late Apoptosis (AV+, PI+) ([1]; 1× IC50, 24 h) [%] | % cells, Necrosis (AV−, PI+) ([1]; 1× IC50, 24 h) [%] | % cells, Early Apoptosis (AV+, PI−) ([1]; 4× IC50, 24 h) [%] | % cells, Late Apoptosis (AV+, PI+) ([1]; 4× IC50, 24 h) [%] | % cells, Early Apoptosis (AV+, PI−) ([2]; 1 × EC50, 24 h) | % cells, Late Apoptosis (AV+, PI+) ([2]; 1 × EC50, 24 h) | % cells, Necrosis (AV−, PI+) ([2]; 1 × EC50, 24 h) [%] | % cells, Early Apoptosis (AV+, PI−) ([2]; 4 × EC50, 24 h) | % cells, Late Apoptosis (AV+, PI+) ([2]; 4 × EC50, 24 h) | % cells, Necrosis (AV−, PI+) ([2]; 4 × EC50, 24 h) | other results
1 | 1.5 ± 0.23 | C[C@@H]1[C@H](O)[C@@H](C)/C=C/C=C/C=C/C=C/C=C/C=C/C=C/[C@H](O[C@@H]2O[C@H](C)[C@@H](O)[C@H](N)[C@@H]2O)C[C@@H]2O[C@](O)(C[C@@H](O)C[C@@H](O)[C@H](O)CC[C@@H](O)C[C@@H](O)CC(=O)O[C@H]1C)C[C@H](O)[C@H]2C(=O)O [Amphotericin B, reference compound] | 0.67 ± 0.27 | 4.30 ± 0.28 | 7.64 ± 1.17 | 0.27 ± 0.09 | 65.83 ± 1.85 | 4.73 ± 0.97% | 57.50 ± 1.72 ^d % | 11.52 ± 1.89 | 0.60 ± 0.42% | 97.87 ± 1.01 ^d % | 0.96 ± 0.33 ^d % | % cells, Necrosis (AV−, PI+) ([1]; 4× IC50, 24 h): 33.10 ± 1.90%; % cells, Late Apoptosis (AV+, PI+) ([2]; 1 × EC50, 24 h, listed as AmB): 57.50 ± 1.72%; % cells, Late Apoptosis (AV+, PI+) ([2]; 4 × EC50, 24 h, listed as AmB): 97.87 ± 1.01%; CC50 [3]: 53.8 ± 3.59 µM
2 | 23.6 ± 0.64 | O=C(/N=C(/NCc1ccccc1)Nc1ccc(I)cc1)c1ccccc1 [LQOFG-7, (Z)-N-((benzylamine)((4-iodophenyl)amino)methylene)benzamide] | 0.77 ± 0.04 | 0.41 ± 0.08 | 1.19 ± 0.12 | 0.39 ± 0.08 | 0.18 ± 0.07 | 5.84 ± 0.57 ^b % | 44.20 ± 1.01 ^d % | 13.53 ± 0.32 | 8.01 ± 0.14 ^d % | 63.27 ± 0.59 ^d % | 12.27 ± 0.48% | % cells, Early Apoptosis (AV+, PI−) ([1]; 0.5× IC50, 24 h): 0.28 ± 0.05%; % cells, Late Apoptosis (AV+, PI+) ([1]; 0.5× IC50, 24 h): 0.47 ± 0.07%; % cells, Necrosis (AV−, PI+) ([1]; 0.5× IC50, 24 h): 0.87 ± 0.17%; % cells, Early Apoptosis (AV+, PI−) ([1]; 2× IC50, 24 h): 0.76 ± 0.10%; % cells, Late Apoptosis (AV+, PI+) ([1]; 2× IC50, 24 h): 0.26 ± 0.09%; % cells, Early Apoptosis (AV+, PI−) ([2]; 0.5 × EC50, 24 h): 5.56 ± 0.46 ^a %; % cells, Late Apoptosis (AV+, PI+) ([2]; 0.5 × EC50, 24 h): 35.53 ± 3.13 ^c %; % cells, Necrosis (AV−, PI+) ([2]; 0.5 × EC50, 24 h): 9.83 ± 1.27%; % cells, Early Apoptosis (AV+, PI−) ([2]; 2 × EC50, 24 h): 10.02 ± 1.53 ^d %; % cells, Late Apoptosis (AV+, PI+) ([2]; 2 × EC50, 24 h): 36.70 ± 10.35 ^d %; % cells, Necrosis (AV−, PI+) ([2]; 2 × EC50, 24 h): 5.63 ± 1.24%
